The CC50 is the concentration that lowers cell viability or growth by half. Read a high CC50 as lower toxicity to the cells. A word on the EC90: it is the concentration needed for an effect of 90%. Usually EC50 stands for the concentration needed to bring the measured effect to its halfway point.

Where “and” joins values, the source holds several entries; their conditions need not be identical. Equal values may be shown once. Read-outs that look alike come from different tables or passages of the source.

Data on three compounds can be found in patent publication US20230364121A1 (priority 2020, published 2023).

Data set [1] can be described thus: Cytotoxicity in mock infected BHK cells (MTT). The data set is classed as cell-based, hamster. The settings on record: hamster, uninfected BHK-21 cells; BHK-21; Table 5. The protocol:
To determine the cytotoxicity, cells were seeded at an initial density of 1×10^6 cells/mL in 96 well plates containing Minimum Essential Medium with Earles's salts (MEM-E), L-glutamine, 1 mM sodium pyruvate and 25 mg/L kanamycin, supplemented with 10% fetal bovine serum. Cell cultures were then incubated at 37° C. in a humidified 5% CO2 atmosphere in the absence or presence of serial dilutions of test compounds. Cell viability was determined by the MTT method.
Uninfected cells in the presence of serially diluted compound were used to assess the cytotoxicity of compounds.

Data set [2] concerns human coronavirus beta-OC43. The data set can be described thus: microbe, parasite or virus in culture. The format is cell-based, HCoV-OC43. As to conditions: unidentified human coronavirus, OC43, Huh-7, read-out: VYR EC90.
The test system of data set [3] is HCoV-229E. As to conditions: MRC-5 cells; cited from earlier work.
In a further data set the test system is RD cells. As to conditions: human.
In data set [4] the test system is human coronavirus alpha-229E. Kind of data set: microbe, parasite or virus in culture. The format is cell-based, HCoV-229E.
A further data set concerns Huh7 cells. The settings on record: human.
Data set [5] deals with HCoV-229E, HCoV-OC43, SARS-CoV-1 and SARS-CoV-2. Kind of data set: organism not typed. The data set is classed as cell-based, human coronaviruses. The settings on record: Huh-7, read-out: Individual determinations of EC90 values.
Data set [6] deals with HCoV-229E. Kind of data set: Virus-induced CPE assay, HCoV-229E in BHK-21 cells (MTT). The format is cell-based. How it is done:
In an initial screening, BHK-21 cells acutely infected with a seasonal human alpha coronavirus, HCoV-229E, were exposed to serial dilutions of Compound 1A.
BHK-21 cells: Test compounds were dissolved in DMSO at 100 mM and then diluted in Minimum Essential Medium with Earle's salts (MEM-E) containing 1 mM sodium pyruvate and 25 μg/mL kanamycin, supplemented with 10% FBS (growth medium) to final concentrations of 100, 20, 4 and 0.8 μM (two […] replica plates each). After BHK-21 cells were grown to confluency in 96-well plates, growth medium was replaced with fresh maintenance medium (growth medium with 1% inactivated FBS in place of 10% FBS) containing serially diluted test compound and HCoV-229E at a multiplicity of infection (MOI) of 0.01. Uninfected cells in the presence of serially diluted compound were used to assess the cytotoxicity of compounds. After a 3-day incubation at 37° C. in a humidified 5% CO2 atmosphere, cell viability was determined by the MTT method (Pauwels, R et al. J. Virol. Methods 20(4):309-321 (1988)).

A further data set relates to MERS-CoV. The data set is classed as cell-based.
The next data set has as its system SARS-CoV (Urbani). The format is cell-based. The settings on record: SARS-CoV-1, Huh-7, Table 5.
The test system of another data set is HCoV-OC43. The data set can be described thus: microbe, parasite or virus in culture. The format is cell-based. The settings on record: Betacoronavirus 1, OC43, RD.
The subject of the next data set is SARS-CoV-2 (WA1). Kind of data set: microbe, parasite or virus in culture. The data set is classed as cell-based.
Data set [7] concerns SARS-CoV-2 strain BavPatl. The data set can be described thus: Antiviral assay in HUH7.5 cells, viral RNA by RT-qPCR. The data set is classed as cell-based. As to conditions: 2 days. (Quantitative PCR measures a nucleic acid by following its amplification.)
For a further data set, the system named is dNHBE (HAE) cells. As to conditions: human.
[8] abbreviates: read-out: Neutral Red Assay EC50.
Setting [9] is: read-out: Virus Yield Reduction Assay EC90.
Where [10] appears, read: Severe acute respiratory syndrome coronavirus 2, HAE, read-out: EC90, single replicates.
Where [11] appears, read: Severe acute respiratory syndrome coronavirus 2, HAE, read-out: Virus Yield Reduction Assay EC90.
[12] abbreviates: read-out: EC90, single replicates.

`CNc1nc(N)nc2c1ncn2[C@@H]1O[C@H](CO[P@@](=O)(N[C@@H](C)C(=O)OC(C)C)Oc2ccccc2)[C@@H](O)[C@@]1(C)F` [Compound 1A] showed a CC50 at 3 days in data set [1] of more than 100 µM. Besides, the EC90 in data set [2] is 0.29 µM; in data set [4] (unidentified human coronavirus, Huh-7, 72 h, read-out: Virus Yield Reduction Assay EC90), 1 µM; in data set [4] (unidentified human coronavirus, Huh-7, read-out: VYR EC90), 0.71 µM; in data set [5] it was 0.34 to 1.2 µM; in the data set on SARS-CoV (Urbani) (setting [9]), 0.34 µM; in the data set on HCoV-OC43 (setting [9]), 2.2 µM. In addition, the EC90 is 0.5 µM with SARS-CoV-2 (WA1) (Severe acute respiratory syndrome coronavirus 2, HAE, read-out: Average EC90 from two separate HAE assays); 0.57 µM with SARS-CoV-2 (WA1) (setting [10]); 0.37 µg/mL and 640 nM with SARS-CoV-2 (WA1) (setting [11]); 0.33 mg/L in the data set with SARS-CoV-2 (WA1) (Severe acute respiratory syndrome coronavirus 2, HAE, read-out: replicate EC90 determinations); 0.7 µM and 0.52 µM and 0.42 µM with SARS-CoV-2 (WA1) (setting [12]); 0.47 µM with SARS-CoV-2 (WA1) (setting [9]). Moreover, the EC50 with HCoV-229E [3] was more than 100 µM; in [4] (setting [8]), 1.6 µM; in data set [4] (unidentified human coronavirus, Huh-7, 120 h, read-out: Neutral Red Assay EC50), 1.7 µM; in data set [4] (unidentified human coronavirus, Huh-7, read-out: Neutral Red EC50), 1 µM; in data set [4] (unidentified human coronavirus, Huh-7, read-out: Visual EC50, Huh7 cells, visual CPE), 1 µM; with HCoV-229E [6] (BHK-21, the 2 experiments averaged in Table 5, read-out: EC50, single experiments), 2 µM. Also, the EC50 in the data set with HCoV-229E [6] (Human coronavirus 229E, BHK-21, 72 h, BHK-21, dye staining, 3-day incubation, read-out: EC50) stood at 1.8 µM; in the data set on HCoV-229E [6] (Human coronavirus 229E, BHK-21, BHK-21, the 2 experiments averaged in Table 5, read-out: EC50, single experiments), 1.6 µM; in the data set on HCoV-OC43 (setting [8]), 2.8 µM. In addition, the CC50 in the data set with RD cells was more than 86 µM. Besides, the “Selectivity Index (CC50/EC90)” value in data set [4] (Huh-7, Table 5) was more than 75; with SARS-CoV (Urbani), more than 250. Besides, the “Neutral Red Assay CC50” value with Huh7 cells is given as >50^ μg/mL. Further, in the data set on MERS-CoV, the “difference of activity between MERS-CoV and other CoVs” value stood at 30 fold. Moreover, the “replicate EC90 determinations” value with SARS-CoV-2 (WA1) was “^2Value represents the mean of two replicate EC90 determinations, 0.33 and 0.41 μg/mL”. Further, the “Selectivity Index” value in the data set with SARS-CoV-2 (WA1) (dNHBE, virus yield reduction assay) is listed as more than 135.
Take `CNc1nc(N)nc2c1ncn2[C@@H]1O[C@H](COP(=O)(N[C@@H](C)C(=O)OC(C)C)Oc2ccccc2)[C@@H](O)[C@@]1(C)F` (some centres unmarked) [Compound 1A]: the CC50 in the data set with HUH 7.5 cells is more than 20 µM. The compound further gave an EC90 in [7] of 3.39 µM. Further, in data set [7] (listed as AT-511), the EC50 is 1.1 µM and 1.13 µM.
In turn, `O=c1nc(NO)ccn1[C@@H]1O[C@H](CO)[C@@H](O)[C@H]1O` [N4-hydroxycytidine, reference compound] had a CC50 with dNHBE (HAE) cells of more than 19 µM. For the same compound, the “Selectivity Index (CC50/EC90)” value with SARS-CoV-2 (WA1) was more than 5.1. In addition, the “potency relative to Compound 1A in the same experiment (times less)” value in the data set with SARS-CoV-2 (WA1) is 8 times. Besides, the EC90 in the data set on SARS-CoV-2 (WA1) (setting [10]) came to 4.7 µM; in the data set with SARS-CoV-2 (WA1) (setting [11]) it was 3.9 µM; in the data set on SARS-CoV-2 (WA1) (setting [12]) it was 3.1 µM.
